Source: patent US5488060A, “Substituted thiadiazoles, compositions containing them and their use as antimicrobial and marine antifouling agents” (The Dow Chemical Company, priority 1994, dated 1996)
≈ marks a conversion by molar mass, not a printed value. Read-outs that look alike come from different tables or passages of the source.

How the values were obtained:
Type in all cases: cell-based
Bacillus subtilis (Bs) = experiment: Minimum inhibitory concentration (MIC) in nutrient agar, Bacillus subtilis; settings: 30° C., 48 hours, read-out: Minimum Inhibitory Concentration, Bs
How it was run: (§1)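 Test compound, as a 1% acetone–water solution, was mixed into molten nutrient agar (pH 6.8 or pH 8.2) at 48° C to final levels of 500 down to 1.0 ppm. Plates were dried 24 h, spot-inoculated with 10^8 CFU/mL suspensions of 24-h cultures, and incubated 48 h at 30° C. MIC was the lowest level preventing growth.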

[1] = tested on: Enterobacter aerogenes (Ea); experiment: Minimum inhibitory concentration (MIC) in nutrient agar, Enterobacter aerogenes; settings: Klebsiella aerogenes
How it was run: as §1

Escherichia coli (Ec) = experiment: Minimum inhibitory concentration (MIC) in nutrient agar, Escherichia coli
How it was run: as §1

[2] = tested on: Klebsiella pneumoniae (Kp); experiment: Minimum inhibitory concentration (MIC) in nutrient agar, Klebsiella pneumoniae
How it was run: as §1

Proteus vulgaris (Pv) = experiment: Minimum inhibitory concentration (MIC) in nutrient agar, Proteus vulgaris
How it was run: as §1

[3] = tested on: Pseudomonas aeruginosa (PRD-10); experiment: Minimum inhibitory concentration (MIC) in nutrient agar, Pseudomonas aeruginosa PRD-10
How it was run: as §1

[4] = tested on: Pseudomonas aeruginosa (Pa); experiment: Minimum inhibitory concentration (MIC) in nutrient agar, Pseudomonas aeruginosa; settings: 30° C., 48 hours, read-out: Minimum Inhibitory Concentration, Pa
How it was run: as §1

[5] = tested on: Salmonella choleraesuis (Se); experiment: Minimum inhibitory concentration (MIC) in nutrient agar, Salmonella choleraesuis; settings: Salmonella enterica
How it was run: as §1

[6] = tested on: Staphylococcus aureus (Sa); experiment: Minimum inhibitory concentration (MIC) in nutrient agar, Staphylococcus aureus; settings: 30° C., 48 hours, read-out: Minimum Inhibitory Concentration, Sa
How it was run: as §1

Aspergillus niger (An) = experiment: Minimum inhibitory concentration (MIC) in malt yeast agar, Aspergillus niger
How it was run: (§2)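 Growth is scored at 30 °C after 72 h for fungi and 48 h for yeast on malt yeast agar (pH 5.5) containing compound at final levels from 500 down to zero ppm. Organisms are grown 7 days at 30 °C, suspended in saline with octylphenoxy polyethoxy ethanol, and diluted 1:9 before replicator inoculation.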

Candida albicans (Ca) = experiment: Minimum inhibitory concentration (MIC) in malt yeast agar, Candida albicans
How it was run: as §2

[7] = tested on: Penicillium chrysogenum (Pc); experiment: Minimum inhibitory concentration (MIC) in malt yeast agar, Penicillium chrysogenum; settings: 72 h, pH 5.5, read-out: Minimum Inhibitory Concentration, PC
How it was run: as §2

[8] = tested on: Saccharomyces cerevisiae (Sc); experiment: Minimum inhibitory concentration (MIC) in malt yeast agar, Saccharomyces cerevisiae
How it was run: as §2

Trichoderma viride (Tv) = experiment: Minimum inhibitory concentration (MIC) in malt yeast agar, Trichoderma viride; settings: pH 5.5; malt yeast agar, 30° C., 72 hours for fungi; read-out: Minimum Inhibitory Concentration, Tv
How it was run: as §2

[9] = tested on: Aureobasidium pullulan (Ap); experiment: Minimum inhibitory concentration (MIC) in malt yeast agar, Aureobasidium pullulan; settings: pH 5.5, read-out: Minimum Inhibitory Concentration, Ap
How it was run: as §2

Fusarium oxysporum (Fo) = experiment: Minimum inhibitory concentration (MIC) in malt yeast agar, Fusarium oxysporum; settings: pH 5.5; malt yeast agar, 30° C., 72 hours for fungi; read-out: Minimum Inhibitory Concentration, Fo
How it was run: as §2

[10] = 48 h, pH 6.8, read-out: Minimum Inhibitory Concentration, Ea
[11] = 48 h, pH 8.2, read-out: Minimum Inhibitory Concentration, Ea
[12] = 48 h, pH 6.8, read-out: Minimum Inhibitory Concentration, Ec
[13] = pH 8.2, nutrient agar, 30° C., 48 hours, read-out: Minimum Inhibitory Concentration, Ec
[14] = 48 h, pH 8.2, read-out: Minimum Inhibitory Concentration, Kp
[15] = pH 6.8, nutrient agar, 30° C., 48 hours, read-out: Minimum Inhibitory Concentration, Kp
[16] = 48 h, pH 6.8, read-out: Minimum Inhibitory Concentration, Pv
[17] = 48 h, pH 8.2, read-out: Minimum Inhibitory Concentration, Pv
[18] = 48 h, pH 6.8, read-out: Minimum Inhibitory Concentration, PRD
[19] = 48 h, pH 8.2, read-out: Minimum Inhibitory Concentration, PRD
[20] = 48 h, pH 6.8, read-out: Minimum Inhibitory Concentration, SC
[21] = 48 h, pH 8.2, read-out: Minimum Inhibitory Concentration, SC
[22] = pH 5.5, malt yeast agar, 30° C., 72 hours for fungi, read-out: Minimum Inhibitory Concentration, An
[23] = 48 h, pH 5.5, read-out: Minimum Inhibitory Concentration, Ca
[24] = pH 5.5, malt yeast agar, 30° C., 48 hours for yeast, read-out: Minimum Inhibitory Concentration, SC

Compound: N#CSCSc1nsnc1-c1ccc(C(F)(F)F)cc1 [Example XXVI, 4-(4-Trifluoromethyl-phenyl)-3-thiocyanatomethylthio-1,2,5-thiadiazole]
- MIC (Bacillus subtilis (Bs); pH 6.8, nutrient agar): 9 µg/mL (≈ 27 µM)
- MIC (Bacillus subtilis (Bs); pH 8.2, nutrient agar): 9 µg/mL (≈ 27 µM)
- MIC [1, 10]: 500 µg/mL (≈ 1500 µM)
- MIC [1, 11]: > 500 µg/mL
- MIC (Escherichia coli (Ec); [12]): 500 µg/mL (≈ 1500 µM)
- MIC (Escherichia coli (Ec); [13]): 250 µg/mL (≈ 750 µM)
- MIC [2, 14]: > 500 µg/mL
- MIC [2, 15]: 500 µg/mL (≈ 1500 µM)
- MIC (Proteus vulgaris (Pv); [16]): 500 µg/mL (≈ 1500 µM)
- MIC (Proteus vulgaris (Pv); [17]): > 500 µg/mL
- MIC [3, 18]: 500 µg/mL (≈ 1500 µM)
- MIC [3, 19]: > 500 µg/mL
- MIC ([4]; pH 6.8, nutrient agar): 500 µg/mL (≈ 1500 µM)
- MIC ([4]; pH 8.2, nutrient agar): > 500 µg/mL
- MIC [5, 20]: 500 µg/mL (≈ 1500 µM)
- MIC [5, 21]: > 500 µg/mL
- MIC ([6]; pH 6.8, nutrient agar): 25 µg/mL (≈ 75 µM)
- MIC ([6]; pH 8.2, nutrient agar): 25 µg/mL (≈ 75 µM)
- MIC (Aspergillus niger (An); 72 h, pH 5.5, read-out: Minimum Inhibitory Concentration, An): 25 µg/mL (≈ 75 µM)
- MIC (Candida albicans (Ca); pH 5.5, malt yeast agar, 30° C., 48 hours for yeast, read-out: Minimum Inhibitory Concentration, Ca): > 500 µg/mL
- MIC [7]: 2.5 µg/mL (≈ 7.5 µM)
- MIC ([8]; 48 h, pH 5.5, read-out: Minimum Inhibitory Concentration, SC): 2.5 µg/mL (≈ 7.5 µM)
- MIC (Trichoderma viride (Tv)): > 500 µg/mL
- MIC [9]: 5 µg/mL (≈ 15 µM)
- MIC (Fusarium oxysporum (Fo)): > 500 µg/mL

Compound: N#CSc1nsnc1-c1ccc(F)cc1 [Example V, 4-(4-Fluorophenyl)-3-thiocyanato-1,2,5-thiadiazole]
- MIC (Bacillus subtilis (Bs); pH 6.8, nutrient agar): < 10 µg/mL
- MIC (Bacillus subtilis (Bs); pH 8.2, nutrient agar): 50 µg/mL (≈ 211 µM)
- MIC [1, 11]: 500 µg/mL (≈ 2110 µM)
- MIC ([1]; pH 6.8, nutrient agar, 30° C., 48 hours, read-out: Minimum Inhibitory Concentration, Ea): 250 µg/mL (≈ 1050 µM)
- MIC (Escherichia coli (Ec); [12]): 50 µg/mL (≈ 211 µM)
- MIC (Escherichia coli (Ec); [13]): 250 µg/mL (≈ 1050 µM)
- MIC [2, 15]: 100 µg/mL (≈ 421 µM)
- MIC ([2]; pH 8.2, nutrient agar, 30° C., 48 hours, read-out: Minimum Inhibitory Concentration, Kp): 100 µg/mL (≈ 421 µM)
- MIC (Proteus vulgaris (Pv); pH 6.8, nutrient agar, 30° C., 48 hours, read-out: Minimum Inhibitory Concentration, Pv): 25 µg/mL (≈ 105 µM)
- MIC (Proteus vulgaris (Pv); pH 8.2, nutrient agar, 30° C., 48 hours, read-out: Minimum Inhibitory Concentration, Pv): 100 µg/mL (≈ 421 µM)
- MIC ([3]; pH 6.8, nutrient agar, 30° C., 48 hours, read-out: Minimum Inhibitory Concentration, PRD): 250 µg/mL (≈ 1050 µM)
- MIC ([3]; pH 8.2, nutrient agar, 30° C., 48 hours, read-out: Minimum Inhibitory Concentration, PRD): 250 µg/mL (≈ 1050 µM)
- MIC ([4]; pH 6.8, nutrient agar): 100 µg/mL (≈ 421 µM)
- MIC ([4]; pH 8.2, nutrient agar): 100 µg/mL (≈ 421 µM)
- MIC ([5]; pH 6.8, nutrient agar, 30° C., 48 hours, read-out: Minimum Inhibitory Concentration, SC): 100 µg/mL (≈ 421 µM)
- MIC ([5]; pH 8.2, nutrient agar, 30° C., 48 hours, read-out: Minimum Inhibitory Concentration, SC): 250 µg/mL (≈ 1050 µM)
- MIC ([6]; pH 6.8, nutrient agar): 25 µg/mL (≈ 105 µM)
- MIC ([6]; pH 8.2, nutrient agar): 50 µg/mL (≈ 211 µM)
- MIC (Aspergillus niger (An); [22]): 5 µg/mL (≈ 21.1 µM)
- MIC (Candida albicans (Ca); [23]): 25 µg/mL (≈ 105 µM)
- MIC [7]: 2.5 µg/mL (≈ 10.5 µM)
- MIC [8, 24]: 5 µg/mL (≈ 21.1 µM)
- MIC (Trichoderma viride (Tv)): 25 µg/mL (≈ 105 µM)
- MIC [9]: 2.5 µg/mL (≈ 10.5 µM)
- MIC (Fusarium oxysporum (Fo)): 10 µg/mL (≈ 42.1 µM)

Compound: N#CSCSc1nsnc1-c1cccc(Cl)c1 [Example XIX, 4-(3-Chlorophenyl)-3-thiocyanatomethylthio-1,2,5-thiadiazole]
- MIC (Bacillus subtilis (Bs); pH 6.8, nutrient agar): 9 µg/mL (≈ 30 µM)
- MIC (Bacillus subtilis (Bs); pH 8.2, nutrient agar): 9 µg/mL (≈ 30 µM)
- MIC [1, 10]: 500 µg/mL (≈ 1670 µM)
- MIC [1, 11]: > 500 µg/mL
- MIC (Escherichia coli (Ec); [12]): 500 µg/mL (≈ 1670 µM)
- MIC (Escherichia coli (Ec); 48 h, pH 8.2, read-out: Minimum Inhibitory Concentration, Ec): 500 µg/mL (≈ 1670 µM)
- MIC [2, 14]: > 500 µg/mL
- MIC [2, 15]: 500 µg/mL (≈ 1670 µM)
- MIC (Proteus vulgaris (Pv); [16]): 500 µg/mL (≈ 1670 µM)
- MIC (Proteus vulgaris (Pv); [17]): > 500 µg/mL
- MIC [3, 18]: 500 µg/mL (≈ 1670 µM)
- MIC [3, 19]: > 500 µg/mL
- MIC ([4]; pH 6.8, nutrient agar): 500 µg/mL (≈ 1670 µM)
- MIC ([4]; pH 8.2, nutrient agar): > 500 µg/mL
- MIC [5, 20]: 500 µg/mL (≈ 1670 µM)
- MIC [5, 21]: > 500 µg/mL
- MIC ([6]; pH 6.8, nutrient agar): 9 µg/mL (≈ 30 µM)
- MIC ([6]; pH 8.2, nutrient agar): 9 µg/mL (≈ 30 µM)
- MIC (Aspergillus niger (An); [22]): 5 µg/mL (≈ 16.7 µM)
- MIC (Candida albicans (Ca); [23]): 25 µg/mL (≈ 83.4 µM)
- MIC [7]: 2.5 µg/mL (≈ 8.34 µM)
- MIC [8, 24]: 1 µg/mL (≈ 3.34 µM)
- MIC (Trichoderma viride (Tv)): > 500 µg/mL
- MIC [9]: 2.5 µg/mL (≈ 8.34 µM)
- MIC (Fusarium oxysporum (Fo)): 500 µg/mL (≈ 1670 µM)
